Measured values as given in ChEMBL document CHEMBL4613328, “Dual Targeting of Norepinephrine Transporter (NET) Function and Thyrointegrin αvβ3 Receptors in the Treatment of Neuroblastoma” (J Med Chem, 2020).
The source made the active and inactive calls. The calls are words filed in the database; no cut-off is given here.

Legend:
SK-N-FI [1] = experiment: Antitumor activity against human SK-N-FI cells xenografted in Ncr nude mouse assessed as inhibition of tumor growth by measuring suppression of tumor weight at 3 mg/kg, sc dosed daily for 15 days relative to control; format: functional; settings: for inhibition in vivo at 3 mg/kg: 360 h, read-out: TGI
[2] = Drug uptake in human SK-N-FI cells using Cy7-labeled compound incubated for 4 hrs by confocal microscopy; format: ADME, cell-based
Integrin alpha-V/beta-3 [3] = biological target: T1, Integrin alpha-V/beta-3 (Homo sapiens, UniProt P05106+P06756); experiment: Binding affinity to […] integrin alphaVbeta3 in human SK-N-FI cells using Cy7-labeled compound incubated for 4 hrs by confocal microscopy; format: cell-based
[4] = Drug uptake in nucleus of human SK-N-FI cells using Cy7-labeled compound incubated for 4 hrs by confocal microscopy; format: ADME, subcellular
SK-N-FI [5] = experiment: Inhibition of cell proliferation of human SK-N-FI cells at 30 to 100 uM incubated for 24 hrs relative to control; format: functional
SK-N-FI [6] = experiment: Inhibition of cell proliferation of human SK-N-FI cells at 30 to 100 uM incubated for 48 hrs relative to control; format: functional
SK-N-FI [7] = experiment: Antitumor activity against human SK-N-FI cells xenografted in Ncr nude mouse assessed as inhibition of tumor growth at 1 to 10 mg/kg, sc dosed daily up to 15 days relative to control; format: functional
SK-N-FI [8] = experiment: Antitumor activity against human SK-N-FI cells xenografted in Ncr nude mouse assessed as inhibition of neuroblastoma tumor cell viability at 1 to 10 mg/kg, sc dosed daily for 15 days relative to control; format: functional
SK-N-FI [9] = experiment: Antitumor activity against human SK-N-FI cells xenografted in Ncr nude mouse assessed as increase in neuroblastoma tumor apoptosis and necrosis at 1 to 10 mg/kg, sc dosed daily for 15 days relative to control; format: functional
Integrin alpha-V/beta-3 [10] = biological target: T1, Integrin alpha-V/beta-3; experiment: Binding affinity to purified integrin alphaVbeta3 receptor (unknown origin) incubated for 2 hrs; format: protein-complex assay
Target sequence in this assay (P05106 27-788 limits assumed): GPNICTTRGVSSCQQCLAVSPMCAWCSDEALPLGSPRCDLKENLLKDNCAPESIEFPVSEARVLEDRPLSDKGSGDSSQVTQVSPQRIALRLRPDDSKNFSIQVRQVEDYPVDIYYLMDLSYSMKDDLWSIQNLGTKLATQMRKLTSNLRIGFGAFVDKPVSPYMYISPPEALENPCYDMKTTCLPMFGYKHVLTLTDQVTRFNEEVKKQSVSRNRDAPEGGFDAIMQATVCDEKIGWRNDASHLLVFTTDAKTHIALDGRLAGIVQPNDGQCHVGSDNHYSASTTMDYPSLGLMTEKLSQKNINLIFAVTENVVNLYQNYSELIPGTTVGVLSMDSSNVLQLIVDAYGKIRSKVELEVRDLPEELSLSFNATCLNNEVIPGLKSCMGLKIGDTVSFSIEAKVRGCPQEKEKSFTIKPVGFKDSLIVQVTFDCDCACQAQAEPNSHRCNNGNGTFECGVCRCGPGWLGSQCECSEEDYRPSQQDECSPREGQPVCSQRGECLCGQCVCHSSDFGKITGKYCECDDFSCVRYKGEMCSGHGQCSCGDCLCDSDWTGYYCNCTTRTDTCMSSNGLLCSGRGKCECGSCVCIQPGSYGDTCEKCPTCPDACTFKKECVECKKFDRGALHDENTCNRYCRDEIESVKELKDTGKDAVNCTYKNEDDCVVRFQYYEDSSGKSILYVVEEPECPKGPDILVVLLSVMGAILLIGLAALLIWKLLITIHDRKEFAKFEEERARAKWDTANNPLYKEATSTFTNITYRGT
Target sequence in this assay (P06756 31-889 limits assumed): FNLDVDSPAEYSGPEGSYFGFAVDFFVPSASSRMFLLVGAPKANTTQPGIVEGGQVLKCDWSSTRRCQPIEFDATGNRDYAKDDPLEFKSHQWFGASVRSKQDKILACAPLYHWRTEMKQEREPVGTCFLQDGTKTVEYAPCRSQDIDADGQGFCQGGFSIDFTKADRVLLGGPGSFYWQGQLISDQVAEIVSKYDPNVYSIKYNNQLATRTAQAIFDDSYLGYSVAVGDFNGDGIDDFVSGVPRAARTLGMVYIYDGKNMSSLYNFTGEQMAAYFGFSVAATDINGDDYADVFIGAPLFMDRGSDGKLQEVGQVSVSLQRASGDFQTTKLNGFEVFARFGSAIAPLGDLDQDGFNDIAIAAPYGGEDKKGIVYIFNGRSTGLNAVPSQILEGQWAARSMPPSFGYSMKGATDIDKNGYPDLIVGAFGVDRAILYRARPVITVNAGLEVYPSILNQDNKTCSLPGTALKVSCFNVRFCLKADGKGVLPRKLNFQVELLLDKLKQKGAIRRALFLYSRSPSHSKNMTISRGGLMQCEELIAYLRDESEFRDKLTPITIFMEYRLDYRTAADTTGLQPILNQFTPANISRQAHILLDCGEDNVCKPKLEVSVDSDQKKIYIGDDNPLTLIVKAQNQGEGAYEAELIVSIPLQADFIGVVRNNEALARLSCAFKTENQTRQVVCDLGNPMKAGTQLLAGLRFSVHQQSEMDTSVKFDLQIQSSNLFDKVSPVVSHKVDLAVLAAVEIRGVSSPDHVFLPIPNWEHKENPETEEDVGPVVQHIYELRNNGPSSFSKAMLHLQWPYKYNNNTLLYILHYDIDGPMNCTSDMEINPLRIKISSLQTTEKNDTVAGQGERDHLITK
Target sequence in this assay (P06756 891-1048 limits assumed): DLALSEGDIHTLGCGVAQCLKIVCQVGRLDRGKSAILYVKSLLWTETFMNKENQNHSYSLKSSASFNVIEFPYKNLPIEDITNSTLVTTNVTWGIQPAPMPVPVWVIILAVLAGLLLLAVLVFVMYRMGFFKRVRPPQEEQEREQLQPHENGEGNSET

## N=C(N)NCc1ccccc1
SK-N-FI [1]
  TGI: inactive
[2]
  Drug uptake: 90 to 100%

## N=C(N)NCc1ccc(OCCOCCOCCOCCOCCOCCOCCn2cc(COc3c(I)cc(Oc4c(I)cc(CC(=O)O)cc4I)cc3I)nn2)cc1
Integrin alpha-V/beta-3 [3]
  Activity: Active
[4]
  Drug uptake: Not Active
SK-N-FI [5]
  inhibition (INH): 30%
SK-N-FI [6]
  inhibition (INH): 50 - 60%
SK-N-FI [1]
  inhibition in vivo at 3 mg/kg: 80 to 100%
SK-N-FI [7]
  TGI: 80 - 100%
SK-N-FI [8]
  inhibition (INH): 80 - 100%
SK-N-FI [9]
  Activity: 80 - 100%

## O=C(O)Cc1cc(I)c(Oc2cc(I)c(O)c(I)c2)c(I)c1 [TETRAC]
Integrin alpha-V/beta-3 [10]
  IC50: 62.4 nM
[4]
  Drug uptake: Active
SK-N-FI [1]
  inhibition in vivo at 3 mg/kg: 40 to 50%
